Experimental data taken from patent US5846516A, “Perfluoroalkylated amphiphilic phosphorus compounds: preparation and biomedical applications” (Alliance Pharmaceutial Corp., priority 1992, dated 1998).
Read-outs that look alike come from different tables or passages of the source.

Columns and labels:
[1] = Surface activity of aqueous solutions: surface (γs) and interfacial (γi) tensions; assay type: physicochemical; settings: 20° C., ±0.3 mNm^-1
Description: The compounds described in this invention are very efficient surface agents, greatly lowering the surface (γs) and interfacial (γi) tensions between water and a fluorocarbon when added to water. […], γs goes from 73 (pure water) to 19.7-33.8 mNm^-1, and γi [water/perfluorodecalin (FDC) or perfluorooctyl bromide (PFOB) ] goes from 56 and 51 (in the absence of surfactant) to 5.1-8.9 mNm^-1 and 4.7-10.5 mNm^-1 respectively, as illustrated by the examples assembled in the table below. These compounds are also characterized by low values of critical micellar concentration: (CMC:from 1.10^-6 to 1.7.10^-3 M).
(§1) Surface Activity Data of Aqueous Solutions

[2] = Critical micellar concentration (CMC); assay type: physicochemical; settings: aqueous solutions, 20° C.
Description: The compounds described in this invention are very efficient surface agents, greatly lowering the surface (γs) and interfacial (γi) tensions between water and a fluorocarbon when added to water. Thus at 1 g/L in water, γs goes from 73 (pure water) to 19.7-33.8 mNm^-1, and γi [water/perfluorodecalin (FDC) or perfluorooctyl bromide (PFOB) ] goes from 56 and 51 (in the absence of surfactant) to 5.1-8.9 mNm^-1 and 4.7-10.5 mNm^-1 respectively, as illustrated by the examples assembled in the table below. These compounds are also characterized by low values of critical micellar concentration: (CMC:from 1.10^-6 to 1.7.10^-3 M).
as §1

[3] = Growth and viability of Namalva cell cultures; assay type: cell-based; settings: human; for activity: namalva cells; for viability: Namalva cells
[4] = Hemolysis of red blood cells; assay type: cell-based, human; settings: human, read-out: Hemolysis, % hem.
Description: (§2) Compound 22 is non-hemolytic at a 50 g/L concentration, and its LD50 is higher than 2000 mg/kg in intravenous injection into mice. […] Furthermore, these derivatives show a higher i.v. tolerance than the single-chain compounds disclosed in WO 90/15807 C (25 ≤LD50 ≤125 mg/kg bw).
(§3) *solution added to an equal volume of a suspension, at 1% concentration o
(§4) washed red blood cells in saline.

human red blood cells = test: Hemolysis of red blood cells; assay type: cell-based
Description: as §2, §3, §4

[5] = Toxicity in mice after intravenous injection (LD50, survival); assay type: in vivo; settings: mouse, in vivo; intravenous injection into mice
Description: as §2

mice = test: as above; assay type: in vivo; settings: for Toxicity in mice, Survival: i.v.
Description: as §2

[6] = Dispersibility in water at 25° C.
[7] = Ageing of sonicated perfluorodecalin (FDC 50% w/v) emulsions at 40° C., average particle size; assay type: physicochemical; settings: FIG. 5; 50% w/v PFD sterilized emulsions, 3% surfactant
Description: (§5) The products described in this invention, used as surfactants or co-surfactants, allow the preparation and stabilization of fluorocarbon emulsions. The emulsions were prepared by sonification (BRANSON B30 sonicator) (for 50% w/v of fluorocarbon) or by high-pressure microfluidization ((MICROFLUIDICS M 110)) (for more concentrated fluorocarbon emulsions). The ageing of these emulsions at 40° C. (accelerated ageing conditions) was followed by measuring the average size of the particles by a photosedimentation method (HORIBA CAPA 500) and compared with reference emulsions prepared with natural egg-yolk lecithins or poloxamers, for example Pluronic F-68.
To prepare 12 mL of an emulsion of FDC (50% w/v) with 3% w/v of 7b, the surfactant (360 mg) was first sonicated in a rosette cell at 0° C., in 8.55 mL of water. Next, the FDC (6 g) was added and the whole is sonicated, until optimal average particle size and size distribution are obtained. The emulsion was then divided into aliquots, stocked under inert atmosphere, sterilized for 8 min at 121° C. in an autoclave, then stored at 40° C. and monitored over time.
The same process but with a mixture of surfactants composed of 120 mg of 7b and 240 mg of natural egg-yolk lecithins (EYP) gave FDC emulsion with the following average particle sizes: 0.15 μm on preparation, 0.21 μm after sterilization and 0.32 μm after 30 days at 40° C. […]

[8] = assay type: physicochemical; settings: 90% w/v PFOB
Description: as §5
To prepare 40 mL of a 90% w/v PFOB emulsion, surfactant 7b (400 mg) was first dispersed in 19.6 mL of a phosphate buffer with an Ultra Turrax. PFOB (36 g) was then added slowly and the whole was mixed for 10 min at 24000 revolutions/min. The resulting pre-emulsion was transferred into a microfluidizer and emulsified for 1 min at 800-1000 bar.
This emulsion was prepared as for example 28 with 200 mg of 7b and 1.4 g of EYP for 35 g of PFOB.

O=P(O)(OCCC(F)(F)C(F)(F)C(F)(F)C(F)(F)C(F)(F)C(F)(F)F)OC[C@H]1OC(O)[C@H](O)[C@@H](O)[C@@H]1O (stereo partly drawn) [Compound 7a, [2-(F-hexyl)ethyl](6-D-glucosyl)(sodium)phosphate]
γi /FDC (interfacial tension water/perfluorodecalin) ([1]; 1 g/L in water): 5.6 mNm^-1 | γi /PFOB (interfacial tension water/perfluorooctyl bromide) ([1]; 1 g/L in water): 4.7 mNm^-1 | γs (surface tension) ([1]; 1 g/L in water): 19.7 mNm^-1 | CMC [2]: 1.55 mM | activity ([3]; 0.1 g/L): 82% | activity ([3]; 1 g/L): 51% | viability ([3]; 1 g/L): 97% | hemolysis ([4]; 100 g/L, solution added to an equal volume of 1% washed red blood cells in saline): 0% | hemolytic activity (in words) (human red blood cells; even at 100 g/L): no hemolytic activity | LD50 [5]: ~750 mg/kg | Toxicity in mice, Survival (mice; dose 750 (mg/kg)): 4/10 | solubility [6]: 350 mg/mL

O=P(O)(OCCC(F)(F)C(F)(F)C(F)(F)C(F)(F)C(F)(F)C(F)(F)C(F)(F)C(F)(F)F)OC[C@H]1OC(O)[C@H](O)[C@@H](O)[C@@H]1O (stereo partly drawn) [Compound 7b, [2-(F-octyl)ethyl](6-D-glucosyl)(sodium)phosphate]
activity ([3]; 1 g/L): 76% | viability ([3]; 1 g/L): 104% | hemolysis ([4]; 30 g/L, dispersed in a 20 g/L Pluronic F68 solution, added to an equal volume of 1% washed red blood cells in saline): 0% | hemolytic effect (in words) (human red blood cells; dispersion at 30 g/L in 20 g/L Pluronic F-68): no hemolytic effect | Toxicity in mice, Survival (mice; dose 125 (mg/kg)): 10/10 | ageing at 40° C. of perfluorodecalin emulsions (in words) [7]: superimposable | stability of PFOB emulsion vs. EYP emulsion (in words) ([8]; FIG. 6, 1% w/v 7b vs 4% EYP, 40° C.): more stable than an emulsion containing 4% of EYP | co-surfactant effect with EYP on particle size and stabilization (in words) ([8]; FIG. 7, 1/8th of 4% EYP replaced by 7b): significantly reduces the average particle size and causes strong stabilization

O=P(O)(OCCC(F)(F)C(F)(F)C(F)(F)C(F)(F)C(F)(F)C(F)(F)C(F)(F)C(F)(F)F)O[C@H]1[C@H](O)[C@@H](CO)OC(O)[C@@H]1O (stereo partly drawn) [Compound 8b, [2-(F-octyl)ethyl] (3-D-glucosyl)(sodium) phosphate]
γi /FDC (interfacial tension water/perfluorodecalin) ([1]; 1 g/L in water): 5.6 mNm^-1 | γi /PFOB (interfacial tension water/perfluorooctyl bromide) ([1]; 1 g/L in water): 8.3 mNm^-1 | γs (surface tension) ([1]; 1 g/L in water): 27.5 mNm^-1 | CMC [2]: 1.68 mM | ageing at 40° C. of perfluorodecalin emulsions (in words) [7]: superimposable | solubility [6]: 250 mg/mL

[2-(F-octyl)ethyl] bis [polyethylene glycol methyl ether] phosphate triester 20, n=7 [Compound 20]
γi /FDC (interfacial tension water/perfluorodecalin) ([1]; 0.1 g/L (0.083 mM) in water): 13.1 mNm^-1 | γi /PFOB (interfacial tension water/perfluorooctyl bromide) ([1]; 0.1 g/L (0.083 mM) in water): 9.2 mNm^-1 | γs (surface tension) ([1]; 0.1 g/L (0.083 mM) in water): 33.8 mNm^-1 | CMC [2]: 0.025 mM | Dispersibility at 25° C., g/L in water: > 100 g/L

[5-(F-octyl)pentyl] bis [polyethylene glycol methyl ether] phosphate triester 21, n=7 [Compound 21]
γi /FDC (interfacial tension water/perfluorodecalin) ([1]; 0.01 g/L (0.008 mM) in water): 9.6 mNm^-1 | γi /PFOB (interfacial tension water/perfluorooctyl bromide) ([1]; 0.01 g/L (0.008 mM) in water): 7.5 mNm^-1 | γs (surface tension) ([1]; 0.01 g/L (0.008 mM) in water): 29.6 mNm^-1 | CMC [2]: 0.001 mM | Toxicity in mice, Survival (mice; dose 500 (mg/kg)): 10/10 | Toxicity in mice, Survival (mice; dose 1000 (mg/kg)): 3/10 | Dispersibility at 25° C., g/L in water: > 100 g/L

[5-(F-octyl)pentyl] bis [polyethylene glycol methyl ether] phosphate triester 22, n=16 [Compound 22]
hemolytic activity (in words) (human red blood cells; 50 g/L): non-hemolytic | Toxicity in mice, Survival (mice; dose 2000 (mg/kg)): 10/10 | LD50 (mice; intravenous injection into mice): higher than 2000 mg/kg | in vivo (i.v.) tolerance (in words) (mice; intravenous, mice): in vivo tolerance increases from 21 to 22
